# Tested on: drug-resistant Mycobacterium tuberculosis
# Settings: drug-resistant Mycobacterium tuberculosis growth; peptide 10 micrograms per ml; seven days
smiles,measurement,value
CC[C@H](C)[C@H](NC(=O)[C@H](Cc1ccc(O)cc1)NC(=O)[C@@H](NC(=O)[C@H](CCCNC(=N)N)NC(=O)[C@@H](N)CC(=O)O)C(C)C)C(=O)N[C@@H](Cc1c[nH]cn1)C(=O)N1CCC[C@H]1C(=O)N[C@@H](Cc1ccccc1)C(=O)O [Angiotensin II],% inhibition,0.0%

# Reference: US20100197604A1, “USE OF PEPTIDE AS A THERAPEUTIC AGENT” (priority 2007, published 2010)
